No end group written: not given here.
Experiments:
T2-A3 cells = test: 51Cr-release cytotoxicity assay, peptide-pulsed T2-A3 target cells; assay type: cell-based, human; conditions: for lysis of peptide-pulsed T2-A3 cells by CTL clone 9: FIG. 4b; for lysis of peptide-pulsed T2-A3 cells by Rho1L2-stimulated CTL bulk cultures: bulk culture from MM patient after four restimulations, FIG. 4a, unpulsed cells not lysed
Method: (§1) PBL from a melanoma (MM) patient were stimulated with irradiated (20 Gy) autologous Rho1L2-loaded DC (PBL:DC ratio=3×10^6:3×10^5). The following day 120 U/ml IL-2 (PeproTech, London, UK) was added. Stimulation of the cultures were carried out every 10 days with Rho1L2-loaded irradiated autologous DC (2×) followed by Rho1L2-loaded irradiated autologous PBL (3×). Hundred and twenty U/ml IL-2 (PeproTech, London, UK) was added after each stimulation. After one month growing cultures were tested for specificity for Rho1L2.
(§2) PBL from a specific culture were cloned by limiting dilution in the presence of cloning mix containing 10^6/ml irradiated (20 Gy) lymphocytes from three healthy donors in X-vivo with 5% heat-inactivated human serum, 25 mM HEPES buffer (GibcoBRL, Paisley, UK), and 120 U/ml IL-2 (PeproTech, London, UK). The plates were incubated at 37° C./5% CO2. Every 3-4 days 50 μl fresh media were added containing IL-2 to a final concentration of 120 U/ml. Growing clones were expanded using cloning mix cells (5×10^4 cells/well) and IL-2. After expansion the clones were tested for specificity and cytotoxic potential in a standard ^51Cr-release assay.
Conventional ^51Cr-release assays for CTL-mediated cytotoxicity were carried out as described elsewhere (Andersen et al., (1999) J Immunol 163:3812-3818). Target cells were T2-A3 cells, the HLA-A3^+ breast cancer cell line BT-20, the HLA-A3^+ colon cancer cell line HT-29, the HLA-A3^+ head and neck cancer cell line CRL-2095 (all available at the American Type Culture Collection (ATCC)), the HLA-A3^+ melanoma cell line FM9, the HLA-A3^− melanoma cell line FM82, and the HLA-A3^+ melanoma cell line FM3 (Kirkin et al., (1995) Cancer Immunol Immunother 41: 71-81), with or without added HLA specific mAb W6/32 (Barnstable et al., (1978) Cell 14: 9-20) (2 μg/100 μl) (Schmidt et al., (2003) Blood 102: 571-576) or the HLA-A3 specific antibody GAPA3 (Sire et al., (1988) 140: 2422-2430).

[1] = system: peptide epitope-specific INF-γ releasing effector cells; test: IFN-γ ELISPOT assay on in vitro stimulated PBL/PBMC; assay type: cell-based, human; conditions: for specific T-cell responses among PBMC: HLA-A3+ healthy controls (HD); for specific T-cell responses among PBL: HLA-A3+ renal cell carcinoma (RCC) patients
Method: Peripheral blood lymphocytes (PBL) from HLA-A3^+ cancer patients or peripheral blood mononuclear cells (PBMC) from healthy controls were obtained from the University Hospital Herlev, Denmark. Cells were cryopreserved in FCS with 10% DMSO. Tissue typing was conducted at the Department of Clinical Immunology, The State Hospital, Copenhagen, Denmark. Informed consent was obtained from the patients before any of these measures.
To extend the sensitivity of the ELISPOT assay, PBL were stimulated once before analysis. At day 0, PBL were thawed and plated in 24-well plates (Nunc, Roskilde, Denmark) in X-Vivo medium (Cambrex Bio Science Copenhagen, Vallensbaek Strand, Denmark) with 5% heat-inactivated human serum in the presence of 10 μM peptide (GenScript, Scotch Plains, US). The following day 20 U/ml IL-2 (PeproTech, London, UK) was added to the cultures. The cultured cells were tested for reactivity in the ELISPOT on day 8.
The ELISPOT assay was used to quantify peptide epitope-specific INF-γ releasing effector cells as described previously (WO 2005/049073, Example 1.2). Briefly, nitrocellulose bottomed 96-well plates (MultiScreen MAIP N45, Millipore, Hedehusene, Denmark) were coated with anti-IFN-γ antibody (1-D1K, Mabtech, Nacka, Sweden). The wells were washed, blocked with X-vivo medium before adding 10^4 stimulator T2-A3 cells (with or without 10 μM peptide; Rho1L2: RLGLQVRKNK; Rho1: RAGLQVRKNK (GenScript, Scotch Plains, US)) and effector cells at different concentrations. The plates were incubated overnight. The following day, medium was discarded and the wells were washed prior to addition of biotinylated secondary antibody (7-B6-1-Biotin, Mabtech, Nacka, Sweden). The plates were incubated for 2 hrs, washed and Avidin-enzyme conjugate (AP-Avidin, Calbiochem, Life Technologies, Inc., Roskilde, Denmark) was added to each well. Plates were incubated at RT for 1 hr before the enzyme substrate NBT/BCIP (Gibco Life Technology, Taastrup, Denmark) was added to each well and incubated at RT for 5-10 min. The reaction was terminated with tap-water upon the emergency of dark purple spots. The spots were counted using the ImmunoSpot® Series 2.0 Analyzer (CTL Analyzers, LLC, Cleveland, US) and the peptide specific CTL frequency could be calculated from the numbers of spot-forming cells. The number of antigen-specific spots was calculated by subtracting the mean number of spots of the control wells from the mean number of spots in the positive wells; responses with a p-value<0.05 (Student t-test for unpaired samples) were considered as positive. The definition is in respect with the CIMT Monitoring Panel inter-laboratory testing project (www.c-imt.org).

HLA-A3 = HLA-A3 (Homo sapiens, UniProt P04439); test: Assembly assay for peptide binding to MHC class I molecules; conditions: HLA-A3, lysate of T2-A3 cells, FIG. 2; read-out: peptide concentration required for half maximal recovery of class I MHC molecules (C50 value)
Sequence of HLA-A3 (P04439 25-365): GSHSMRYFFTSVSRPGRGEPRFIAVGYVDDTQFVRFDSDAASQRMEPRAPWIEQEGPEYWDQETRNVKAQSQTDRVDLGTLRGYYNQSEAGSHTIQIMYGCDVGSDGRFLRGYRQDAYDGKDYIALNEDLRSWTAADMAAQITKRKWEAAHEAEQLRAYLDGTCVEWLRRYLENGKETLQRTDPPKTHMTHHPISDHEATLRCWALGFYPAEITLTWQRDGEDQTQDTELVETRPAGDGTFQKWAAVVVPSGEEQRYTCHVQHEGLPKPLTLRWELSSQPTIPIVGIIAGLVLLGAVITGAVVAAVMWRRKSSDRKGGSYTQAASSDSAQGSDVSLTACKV
Sequence of HLA-A3 (P61769 21-119 partner): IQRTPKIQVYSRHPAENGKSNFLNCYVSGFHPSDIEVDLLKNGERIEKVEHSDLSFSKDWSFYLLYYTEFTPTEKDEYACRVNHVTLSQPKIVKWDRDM
Method: The binding affinity of the synthetic peptides (Genscript, Scotch Plains, US) to HLA-A3 molecules was measured by means of the assembly assay as described (13). The assay is based on the stabilization of the class I molecule after loading of different concentrations of peptide to the TAP-deficient cell line T2-A3. Briefly, T2-A3 cells were incubated in methionine-free RPMI 1640 (Gibco BRL, Paisley, UK) with 10% dialysed FCS. Subsequently, cells were metabolically labelled with 50 μCi ^35S-methionine (Amersham, Birkeroed, Denmark). […] Cell nuclei were removed by ultracentrifugation. The supernatant of T2-A3 cells was heated for 5 min at 45° C. in order to reduce background signals by preferentially destabilizing empty HLA-A3. The samples were precleared by addition of Pansorbin (Calbiochem, Darmstadt, Germany) and left on rotation overnight. Stably folded HLA molecules were immune-precipitated using the HLA class I-specific, conformation-dependent mAb W6/32. A-Sepharose beads were added to collect the folded MHC complexes and separated by isoelectric focusing gel electropheresis. MHC heavy chains were quantified using the ImageGauge Phosphorimager program (FUJI Photo Film). The intensity of the band is directly related to the amount of peptide-bound class I MHC complex recovered during the assay. Subsequently, the extent of stabilization of HLA-A3 is directly related to the binding affinity of the added peptide. The C50-value was calculated for each peptide as the peptide concentration sufficient for half maximal stabilization.

[2] = system: HLA-A3+ melanoma cell line FM3; test: 51Cr-release cytotoxicity assay, FM3 target cells; assay type: cell-based, human; conditions: unlabeled T2-A3 cells pulsed with peptide, inhibitor to target ratio 20:1, FIG. 5b
Method: as §1, §2
Conventional ^51Cr-release assays for CTL-mediated cytotoxicity were carried out as described elsewhere (Andersen et al., (1999) J Immunol 163:3812-3818). […]

Molecule	lysis of peptide-pulsed T2-A3 cells by CTL clone 9 (T2-A3 cells)	lysis of peptide-pulsed T2-A3 cells by Rho1L2-stimulated CTL bulk cultures (T2-A3 cells)	specific T-cell responses among PBMC [1]	patients with specific T-cell responses among PBL ([1]; HLA-A3+ melanoma (MM) patients, PBL stimulated once in vitro, FIG. 3)	specific T-cell responses among PBL [1]	EC50 (HLA-A3)	cold target inhibition of clone 9 killing of FM3 cells [2]
RLGLQVRKNK [Rho1L2, RLGLQVRKNK]	effectively lysed	efficiently	No responses were detected	3 out of 10	No responses were detected	4 µM	completely abrogated
CC[C@H](C)[C@H](N)C(=O)N[C@@H](CC(C)C)C(=O)N[C@@H](CCCNC(=N)N)C(=O)NCC(=O)N[C@@H](CO)C(=O)N[C@H](C(=O)N[C@@H](C)C(=O)N[C@@H](Cc1c[nH]cn1)C(=O)N[C@@H](CCCCN)C(=O)O)C(C)C [Influenza NP265-273, ILRGSVAHK, reference compound]						0.3 µM	
RAGLQVRKNK [Rho1, RAGLQVRKNK]	effectively lysed	efficiently	No responses were detected		No responses were detected	> 40 µM	
